Test results as given in patent US10150728B2, “Alkylene derivatives” (Shionogi & Co., Ltd., priority 2013, dated 2018).

These compounds were tested against recombinant human ACC2 (Homo sapiens (Human), UniProt O00763) (assay: Measurement of inhibitory activity on human ACC2 (MALDI-TOF MS, acetyl CoA to malonyl CoA conversion)). Details: Table 154.
Type: biochemical
Summary of the method: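 His-tagged human ACC2 (residues 27–2458) from baculovirus-infected Sf-9 cells was preincubated 1 h in pH 7.4 HEPES-KOH buffer with MgCl2, 6-10 mM potassium citrate, glutathione and BSA. Substrate solution held 1 mM ATP, 0.8 mM acetyl CoA and 25-50 mM bicarbonate. After 1–3 h at room temperature, malonyl CoA/(malonyl+acetyl CoA) was read by negative-mode MALDI-TOF MS; citrate, bicarbonate and time varied by enzyme lot.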

recombinant human ACC2, sequence (O00763 27-2458): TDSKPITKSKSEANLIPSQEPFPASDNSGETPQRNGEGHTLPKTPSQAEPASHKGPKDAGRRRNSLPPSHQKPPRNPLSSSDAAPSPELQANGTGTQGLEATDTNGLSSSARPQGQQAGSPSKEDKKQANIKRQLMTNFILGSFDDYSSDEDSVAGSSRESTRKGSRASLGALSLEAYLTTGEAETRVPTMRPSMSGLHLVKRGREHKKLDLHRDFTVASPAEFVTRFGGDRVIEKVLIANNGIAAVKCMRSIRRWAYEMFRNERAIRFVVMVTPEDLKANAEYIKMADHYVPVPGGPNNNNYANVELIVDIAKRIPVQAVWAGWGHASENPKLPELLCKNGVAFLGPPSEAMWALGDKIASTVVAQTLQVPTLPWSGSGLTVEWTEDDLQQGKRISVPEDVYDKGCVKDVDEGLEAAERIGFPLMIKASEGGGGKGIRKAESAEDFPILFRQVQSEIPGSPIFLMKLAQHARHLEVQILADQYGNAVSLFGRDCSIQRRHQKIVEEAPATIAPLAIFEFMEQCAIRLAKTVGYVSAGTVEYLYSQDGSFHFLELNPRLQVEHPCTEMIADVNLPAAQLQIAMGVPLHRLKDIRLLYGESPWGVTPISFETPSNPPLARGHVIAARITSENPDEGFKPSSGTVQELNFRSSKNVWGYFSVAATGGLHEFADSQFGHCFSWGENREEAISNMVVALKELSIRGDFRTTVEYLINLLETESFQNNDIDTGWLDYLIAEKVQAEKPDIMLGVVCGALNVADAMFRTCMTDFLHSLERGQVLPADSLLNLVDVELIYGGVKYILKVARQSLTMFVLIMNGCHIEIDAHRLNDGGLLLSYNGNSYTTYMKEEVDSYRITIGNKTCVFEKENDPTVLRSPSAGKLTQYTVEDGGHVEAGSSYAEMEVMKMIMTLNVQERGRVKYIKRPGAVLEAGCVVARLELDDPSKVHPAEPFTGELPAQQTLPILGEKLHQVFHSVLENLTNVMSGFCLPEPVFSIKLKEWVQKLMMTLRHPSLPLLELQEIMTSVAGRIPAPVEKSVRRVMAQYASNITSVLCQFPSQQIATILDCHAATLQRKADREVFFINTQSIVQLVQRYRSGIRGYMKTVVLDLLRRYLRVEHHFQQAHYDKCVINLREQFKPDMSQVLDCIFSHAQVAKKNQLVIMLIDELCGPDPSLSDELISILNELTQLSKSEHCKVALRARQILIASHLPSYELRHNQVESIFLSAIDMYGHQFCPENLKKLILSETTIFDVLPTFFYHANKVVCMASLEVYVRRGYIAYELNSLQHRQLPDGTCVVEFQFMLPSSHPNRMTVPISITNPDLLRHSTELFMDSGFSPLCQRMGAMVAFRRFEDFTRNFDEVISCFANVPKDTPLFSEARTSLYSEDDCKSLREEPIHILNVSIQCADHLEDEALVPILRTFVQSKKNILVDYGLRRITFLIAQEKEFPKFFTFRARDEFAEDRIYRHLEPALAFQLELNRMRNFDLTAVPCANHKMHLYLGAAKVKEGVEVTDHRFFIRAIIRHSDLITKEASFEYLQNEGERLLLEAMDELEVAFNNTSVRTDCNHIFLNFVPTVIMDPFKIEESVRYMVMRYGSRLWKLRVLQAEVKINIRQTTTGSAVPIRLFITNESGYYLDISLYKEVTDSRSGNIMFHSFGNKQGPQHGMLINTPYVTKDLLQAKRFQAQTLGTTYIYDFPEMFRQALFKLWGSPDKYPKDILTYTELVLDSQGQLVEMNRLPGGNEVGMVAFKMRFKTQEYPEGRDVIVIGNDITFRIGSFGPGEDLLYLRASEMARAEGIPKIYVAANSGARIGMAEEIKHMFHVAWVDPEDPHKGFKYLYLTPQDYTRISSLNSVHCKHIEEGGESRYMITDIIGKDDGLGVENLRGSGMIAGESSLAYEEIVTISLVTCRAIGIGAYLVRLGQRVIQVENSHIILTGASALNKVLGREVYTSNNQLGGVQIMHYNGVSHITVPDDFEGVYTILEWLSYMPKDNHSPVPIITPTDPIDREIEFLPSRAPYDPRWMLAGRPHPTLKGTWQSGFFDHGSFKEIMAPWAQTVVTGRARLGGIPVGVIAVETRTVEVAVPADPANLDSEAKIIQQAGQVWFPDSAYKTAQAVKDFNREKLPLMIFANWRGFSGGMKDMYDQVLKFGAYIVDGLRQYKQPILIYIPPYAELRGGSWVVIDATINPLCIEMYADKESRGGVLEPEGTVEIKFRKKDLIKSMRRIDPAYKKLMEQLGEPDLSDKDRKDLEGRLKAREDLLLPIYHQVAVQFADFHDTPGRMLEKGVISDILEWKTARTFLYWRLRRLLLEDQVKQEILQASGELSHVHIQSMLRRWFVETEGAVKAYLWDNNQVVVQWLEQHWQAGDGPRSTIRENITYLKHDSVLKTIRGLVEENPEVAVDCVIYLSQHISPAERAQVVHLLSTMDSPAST

| IC50 [nM] | Compound |
| --- | --- |
| 184 | CCCc1ccc(Oc2ccc(OC[C@H](C)NC(C)=O)cc2)c(Cl)c1 [Compound I-005] |
| 15 | CCOc1nc2ccc(O[C@H]3CC[C@H](OC[C@H](C)NC(C)=O)CC3)c(Cl)c2s1 [Compound I-054] |
| 12 | CC(=O)N[C@@H](C)CO[C@H]1CC[C@H](Oc2ncc(-c3ccccc3)cc2Cl)CC1 [Compound I-104] |
| 38 | CC(=O)N[C@@H](C)COc1ccc(Oc2ccc3c(c2Cl)CCN(c2ncc(F)cn2)C3)cn1 [Compound I-023] |
| 213 | CC(=O)N[C@@H](C)CO[C@H]1CC[C@H](Oc2ccc3nc(C(C)C)sc3c2Cl)CC1 [Compound I-046] |
| 759 | CC(=O)N[C@@H](C)[C@H](C)Oc1ccc(Oc2ccc3nc(C(C)C)sc3c2Cl)cn1 [Compound I-014] |
| 15 | CC(=O)N[C@@H](C)CO[C@H]1CC[C@H](Oc2ccc3nc(C(C)C)sc3c2F)CC1 [Compound I-042] |
| 83 | CC(=O)N[C@@H](C)[C@H](C)Oc1cnc(Oc2ccc3nc(C(C)C)sc3c2F)cn1 [Compound I-048] |
| 97 | CC(=O)N[C@@H](C)CO[C@H]1C[C@H](COc2ccc3nc(C(C)(F)F)sc3c2F)C1 [Compound I-097] |

Same assay, conditions: Tables 155-159

| IC50 [nM] | Compound |
| --- | --- |
| 7 | CC(=O)N[C@@H](C)CO[C@H]1C[C@H](COc2ncnc(OCc3ccccn3)c2Cl)C1 [Compound I-435] |
| 12 | CC(=O)N[C@@H](C)CO[C@H]1C[C@H](COc2nc3sc(OC(C)C)nc3cc2F)C1 [Compound I-182] |
| 6 | CC(=O)N[C@@H](C)CO[C@H]1CC[C@H](Oc2ncc(-c3ncc(F)cn3)cc2F)CC1 [Compound I-542] |
| 4 | CC(=O)N[C@@H](C)CO[C@H]1CC[C@H](Oc2nc3cc(F)c(OCC(F)F)c(F)c3n2C)CC1 [Compound I-658] |
| 9 | CC(=O)N[C@@H](C)CO[C@H]1CC[C@H](Oc2ccc3nc(OCc4ccccc4)n(C)c3n2)CC1 [Compound I-501] |
| 403 | CC(=O)N[C@@H](C)CO[C@H]1C[C@](F)(COc2ccc3nc(C(C)(F)F)sc3c2Cl)C1 [Compound I-137] |
| 894 | COCCOc1ccnc(OC[C@H]2C[C@H](OC[C@H](C)NC(C)=O)C2)c1Cl [Compound I-373] |
| 227 | CC(=O)N[C@@H](C)CO[C@H]1CC[C@H](Oc2nc3ccc(OC(F)(F)F)cc3n2C)CC1 [Compound I-572] |
| 85 | CCOc1cc2c(nc(O[C@H]3CC[C@H](OC[C@H](C)NC(C)=O)CC3)n2C)c(F)c1Cl [Compound I-610] |
| 36 | CC(=O)N[C@@H](C)CO[C@H]1C[C@H](COc2ncnc(OCc3cncs3)c2Cl)C1 [Compound I-464] |
| 7 | CC(=O)N[C@@H](C)CO[C@H]1C[C@H](COc2ncnc(OCc3ccccc3)c2Cl)C1 [Compound I-376] |
| 7 | CC(=O)N[C@@H](C)CO[C@H]1C[C@H](COc2nccc(N3CC4(CCC4)C3)c2Cl)C1 [Compound I-337] |
| 110 | CC(=O)N[C@@H](C)CO[C@H]1C[C@H](COc2ccc3nc(N4CC[C@H](F)C4)sc3n2)C1 [Compound I-289] |
| 22 | CC(=O)N[C@@H](C)CO[C@H]1C[C@@H](COc2ccc3nc(N4CC(F)(F)C4)sc3n2)C1 [Compound I-251] |
| 52 | CC(=O)N[C@@H](C)CO[C@H]1C[C@](C)(COc2ccc3nc(OC4CC4)sc3n2)C1 [Compound I-292] |
| 8 | CC(=O)N[C@@H](C)CO[C@H]1C[C@@H](COc2ccc3nc(OCC(F)F)sc3n2)C1 [Compound I-217] |
| 50 | CC(=O)N[C@@H](C)CO[C@H]1C[C@H](COc2ccc3nc(C(C)C)sc3c2)C1 [Compound I-128] |
| 4 | CC(=O)N[C@@H](C)CC[C@@H]1CC[C@@H](Oc2nc3c(F)cc(OCC(F)F)c(Cl)c3n2C)CO1 [Compound I-688] |
| 13 | CCOc1ccc2nc(O[C@H]3CC[C@H](OC[C@H](C)NC(C)=O)CC3)n(C)c2c1Br [Compound I-605] |
| 17 | CC(=O)N[C@@H](C)CO[C@H]1CC[C@H](Oc2nc3c(Cl)c(F)c(OCC(F)F)c(F)c3n2C)CC1 [Compound I-618] |

| IC50 [nM] | Compound |
| --- | --- |
| 19 | CC(=O)N[C@@H](C)CO[C@H]1CC[C@H](Oc2nc3c(C)nc(OC4CC4)c(F)c3n2C)CC1 [Compound I-632] |
| 426 | CC(=O)N[C@@H](C)CO[C@H]1C[C@H](Cn2ccc3c(OCc4cc(Cl)ccn4)ncnc32)C1 [Compound I-470] |
| 12 | CC(=O)N[C@@H](C)CO[C@H]1CC[C@H](Oc2nc3ccc(OC(C)C)c(F)c3n2C)CC1 [Compound I-602] |
| 48 | C[C@@H](CO[C@H]1CC[C@H](Oc2ccc3nc(C(C)(F)F)sc3c2F)CC1)NC(N)=O [Compound I-158] |
| 7 | CC(=O)N[C@@H](C)CC[C@H]1CC[C@H](Oc2nc3c(F)cc(OCC(F)F)c(F)c3n2C)CO1 [Compound I-642] |
| 35 | CC(=O)N[C@@H](C)CO[C@H]1CC[C@H](Oc2ncc3nc(OC4COC4)sc3c2F)CC1 [Compound I-273] |
| 47 | CC(=O)N[C@@H](C)CO[C@H]1C[C@H](COc2ccc3nc(O[C@H]4CCOC4)sc3n2)C1 [Compound I-246] |
| 23 | CC(=O)N[C@@H](C)CO[C@H]1CC[C@H](Oc2ccc3nc(C4(F)COC4)sc3c2F)CC1 [Compound I-134] |
| 37 | CC(=O)N[C@@H](C)CO[C@H]1C[C@H](COc2ccc3nc(OC4CC(C#N)C4)sc3n2)C1 (stereo partly shown) [Compound I-301] |
| 72 | CC(=O)N[C@@H](C)CO[C@H]1C[C@H](COc2nccc(-c3ccc(F)cc3)c2C)C1 [Compound I-313] |
| 401 | CC(=O)N[C@@H](C)CO[C@H]1C[C@H](COc2nccc(-c3ncc(OC(C)C)cn3)c2Cl)C1 [Compound I-312] |
| 5 | CC(=O)N[C@@H](C)CO[C@H]1CC[C@H](Oc2nc3cnc(OCC4CC4)c(F)c3n2C)CC1 [Compound I-625] |
| 10 | CC(=O)N[C@@H](C)CO[C@H]1CC[C@H](Oc2nc3ccc(Oc4ccc(F)cc4)cc3n2C)CC1 [Compound I-596] |
| 5 | CC(=O)N[C@@H](C)CO[C@H]1C[C@H](COc2ccc3nc(OC(C)C)sc3n2)C1 [Compound I-173] |
| 67 | CC(=O)N[C@@H](C)CO[C@H]1CC[C@H](Oc2ncc(-c3ncc(C)cn3)cc2F)CC1 [Compound I-534] |
| 25 | CC(=O)N[C@@H](C)CO[C@H]1CC[C@H](Oc2nc3c(F)cc(F)c(F)c3n2C)CC1 [Compound I-630] |
| 48 | CC(=O)N[C@@H](C)CO[C@H]1C[C@](F)(COc2ccc3nc(OCC(C)(F)F)sc3n2)C1 [Compound I-203] |
| 59 | CC(=O)N[C@@H](C)CO[C@H]1C[C@H](COc2nccc(N3CCCC3C)c2Cl)C1 (stereo partly shown) [Compound I-414] |
| 676 | COc1cccc(COc2ncnc(OC[C@H]3C[C@H](OC[C@H](C)NC(C)=O)C3)c2Cl)n1 [Compound I-404] |
| 480 | CCOc1nc2ccc(OC[C@H]3C[C@H](OC[C@H](C)NC(C)=O)C3)c(Cl)c2n1C [Compound I-490] |

| IC50 [nM] | Compound |
| --- | --- |
| 34 | CC(=O)N[C@@H](C)CO[C@H]1CC[C@H](Oc2nc3cnc(OCc4ccccc4)c(F)c3n2C)CC1 [Compound I-634] |
| 451 | CC(=O)N[C@@H](C)CO[C@H]1C[C@H](COc2ncnc(-c3ccc(F)cc3)c2C)C1 [Compound I-417] |
| 372 | CC(=O)N[C@@H](C)CO[C@H]1CC[C@H](Oc2cc3sc(OCC4(C#N)CC4)nc3cn2)CC1 [Compound I-264] |
| 32 | C[C@@H](CO[C@H]1CC[C@H](Oc2cc3sc(OCC4CC4(F)F)nc3cn2)CC1)NC(N)=O (stereo partly shown) [Compound I-291] |
| 533 | CCOc1ccc(COc2ncnc(OC[C@H]3C[C@H](OC[C@H](C)NC(C)=O)C3)c2Cl)cc1 [Compound I-407] |
| 39 | CCOc1nc2ccc(OC[C@]3(F)C[C@@H](OC[C@H](C)NC(C)=O)C3)nc2s1 [Compound I-163] |
| 13 | CC(=O)N[C@@H](C)CO[C@H]1C[C@H](COc2nccc(OCC(C)(C)C)c2Cl)C1 [Compound I-372] |
| 481 | CC(=O)N[C@@H](C)CO[C@H]1CC[C@H](Oc2ncc(-c3nccc(C#N)n3)cc2F)CC1 [Compound I-531] |
| 11 | C[C@@H](CO[C@H]1C[C@H](COc2ccc3nc(OCC(F)F)sc3n2)C1)NC(=O)C(F)(F)F [Compound I-207] |
| 358 | CC(=O)N[C@@H](C)CO[C@H]1C[C@H](COc2nccc(OC3CC(F)(F)C3)c2Cl)C1 [Compound I-422] |
| 12 | CC(=O)N[C@@H](C)CO[C@H]1CC[C@H](Oc2ccc3nc(OC(C)C)sc3c2F)CC1 [Compound I-122] |
| 41 | CCOc1nc2ccc(OC[C@]3(F)C[C@@H](OC[C@H](C)NC(C)=O)C3)c(Cl)c2s1 [Compound I-116] |
| 4 | CC(=O)N[C@@H](C)CO[C@H]1CC[C@H](Oc2cc3sc(OC4CC(F)(F)C4)nc3cn2)CC1 [Compound I-219] |
| 9 | CC(=O)N[C@@H](C)CO[C@H]1CC[C@H](Oc2cc3sc(OCC4CC4(F)F)nc3cn2)CC1 (stereo partly shown) [Compound I-220] |
| 170 | CC(=O)N[C@@H](C)[C@@H](C)O[C@H]1CC[C@H](Oc2nc3c(F)cc(OCC(F)F)c(F)c3n2C)CC1 [Compound I-716] |
| 18 | CC(=O)N[C@@H](C)CO[C@H]1C[C@H](COc2nccc3c2CCN3Cc2ccccc2)C1 [Compound I-328] |
| 35 | CC(=O)N[C@@H](C)CO[C@H]1CC[C@H](Oc2nc3c(Br)cc(OCc4ccccc4)cc3n2C)CC1 [Compound I-738] |
| 304 | CC(=O)N[C@@H](C)CO[C@H]1CC[C@H](Oc2nc3cc(OC(C)C)ccc3n2C)CC1 [Compound I-566] |
| 22 | CC(=O)N[C@@H](C)CO[C@H]1CC[C@H](Oc2ccc3nc(OCC4(F)COC4)sc3c2F)CC1 [Compound I-120] |
| 194 | CC(=O)N[C@@H](C)CO[C@H]1CC[C@H](Oc2nc3c(Cl)nc(C4CC4)c(Cl)c3n2C)CC1 [Compound I-727] |

| Compound | IC50 [nM] |
| --- | --- |
| CC(=O)N[C@@H](C)CO[C@H]1C[C@H](COc2nccc3c2OCC2CCCN32)C1 (stereo partly shown) [Compound I-331] | 470 |
